This note sets out measurements from ChEMBL document CHEMBL4819121, “Fused chromeno and quinolino[1,8]naphthyridines: Synthesis and biological evaluation as topoisomerase I inhibitors and antiproliferative agents” (Bioorg Med Chem, 2021).

Calls of active or inactive are those of the source. The rule behind the calls is not given here.

The subject of one assay is A549. Nature of the assay: Antiproliferative activity against human A549 cells assessed as cell growth inhibition measured after 48 hrs by CCK-8 assay. It is filed as functional, cell-based. The conditions noted are these: A549, 48 h.
The subject of a further assay is SK-OV-3. As to the kind of experiment: Antiproliferative activity against human SK-OV-3 cells assessed as cell growth inhibition measured after 48 hrs by CCK-8 assay. It is filed as functional, cell-based. The note with it: SK-OV-3, 48 h.
Assay [1] has as its target T1, DNA topoisomerase 1 (Homo sapiens) (UniProt P11387).
T1 sequence (whole entry): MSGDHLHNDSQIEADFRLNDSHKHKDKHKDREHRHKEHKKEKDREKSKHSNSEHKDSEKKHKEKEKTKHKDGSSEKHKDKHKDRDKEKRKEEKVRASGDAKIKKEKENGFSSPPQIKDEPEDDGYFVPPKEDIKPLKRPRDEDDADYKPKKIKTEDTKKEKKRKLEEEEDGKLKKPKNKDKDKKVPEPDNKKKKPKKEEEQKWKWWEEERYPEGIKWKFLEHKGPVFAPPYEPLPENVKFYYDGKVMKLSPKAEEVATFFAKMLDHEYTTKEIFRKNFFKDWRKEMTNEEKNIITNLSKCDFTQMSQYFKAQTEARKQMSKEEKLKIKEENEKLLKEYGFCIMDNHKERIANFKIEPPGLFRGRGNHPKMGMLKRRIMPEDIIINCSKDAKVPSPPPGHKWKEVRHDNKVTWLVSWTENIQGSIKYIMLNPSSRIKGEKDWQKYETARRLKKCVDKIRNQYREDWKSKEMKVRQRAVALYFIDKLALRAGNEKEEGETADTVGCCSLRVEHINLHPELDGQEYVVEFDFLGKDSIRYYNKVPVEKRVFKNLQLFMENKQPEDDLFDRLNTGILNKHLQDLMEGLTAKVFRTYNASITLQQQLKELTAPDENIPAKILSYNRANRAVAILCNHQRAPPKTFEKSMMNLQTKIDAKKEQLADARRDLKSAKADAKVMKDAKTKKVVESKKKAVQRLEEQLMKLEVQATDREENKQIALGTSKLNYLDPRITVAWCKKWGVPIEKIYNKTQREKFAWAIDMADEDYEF
Nature of the assay: Poison activity at recombinant human topoisomerase 1 expressed in yeast TopI null strain RS190 assessed as increase in nicked plasmid DNA at 100 uM using supercoiled pUC18 plasmid DNA as substrate incubated for 15 to 180 secs by Ethidium bromide staining based agarose gel electrophoresis analysis. The note with it: time 15-180 sec.

For assay [2], the target named is T1, DNA topoisomerase 1 (Homo sapiens). As to the kind of experiment: Inhibition of recombinant human topoisomerase 1 expressed in yeast TopI null strain RS190 at 100 uM using negatively supercoiled pUC18 plasmid DNA as substrate incubated for 1 min by agarose gel electrophoresis method.
Assay [3] has the same target. Nature of the assay: Inhibition of recombinant human topoisomerase 1 expressed in yeast TopI null strain RS190 at 100 uM using negatively supercoiled pUC18 plasmid DNA as substrate incubated for 3 min by agarose gel electrophoresis method.
The target is the same in assay [4]. Nature of the assay: Inhibition of recombinant human topoisomerase 1 expressed in yeast TopI null strain RS190 at 100 uM using negatively supercoiled pUC18 plasmid DNA as substrate incubated for 15 secs by agarose gel electrophoresis method. The note with it: time 15.0 sec.
A further assay deals with MRC5. Nature of the assay: Antiproliferative activity against human MRC5 cells assessed as cell growth inhibition measured after 48 hrs by CCK-8 assay. The class given is cell-based. The note with it: MRC5, 48 h. A general note: Formazan colour is commonly taken as a measure of viable cells.

As usually defined, the IC50 is the concentration that inhibits the measured activity by half. One may read the inhibition as the drop in the measured response relative to a control, in per cent. For the compound `Cc1ccc(S(=O)(=O)N2Cc3c(nc4ncc(Br)cc4c3-c3ccccc3)-c3ccccc32)cc1`, the half-maximal inhibitory concentration (IC50) in the assay with A549 was 10.5 µM; in the assay on SK-OV-3, 12.2 µM; in the assay with MRC5, greater than 50 µM. In assay [1], the result was Active. Also, the values for the inhibition in assay [2], in assay [3] and in assay [4] were 98%, 95% and 98%, respectively.
Regarding `Fc1ccc2c(c1)-c1nc3ncccc3c(-c3ccccc3)c1CO2`, the IC50 is 31.2 µM in the assay on A549, 38.1 µM in the assay with SK-OV-3 and greater than 50 µM in the assay on MRC5. The inhibition in assay [2] was 40%; in assay [3] it was 11%; in assay [4], 41%.
In the case of `c1ccc([C@@H]2c3cccnc3N[C@@H]3c4ccccc4OC[C@@H]23)cc1`, the IC50 in the assay with A549 was 11.7 µM; in the assay with SK-OV-3, 12.2 µM; with MRC5, greater than 50 µM. Besides, the inhibition in assay [2] worked out at 60%; in assay [3] it was 5%; in assay [4] it was 61%.
For the compound `Cc1ccc2c(c1)[C@H]1Nc3ncccc3[C@@H](c3ccccc3)[C@@H]1CO2`, the IC50 in the assay on A549, in the assay on SK-OV-3 and in the assay on MRC5 was greater than 50 µM throughout. Also, the inhibition in assay [2] is 15%; in assay [3], 1%; in assay [4], 21%.
Regarding `c1ccc(-c2c3c(nc4ncccc24)-c2ccccc2OC3)cc1`, the IC50 in the assay on A549, with SK-OV-3 and in the assay with MRC5 was greater than 50 µM throughout. The inhibition in assay [2] came to 9%; in assay [3], 2%; in assay [4], 10%.
As to `CC[C@@]1(O)C(=O)OCc2c1cc1n(c2=O)Cc2cc3ccccc3nc2-1`, in assay [1], the result was Active.
With `Fc1ccc2c(c1)[C@H]1Nc3ncccc3[C@@H](c3ccccc3)[C@@H]1CO2`, the IC50 with A549, with SK-OV-3 and in the assay on MRC5 was greater than 50 µM throughout. Besides, the inhibition in assay [2] turned out to be 14%; in assay [3], 1%; in assay [4] it was 14%.
With `Cc1ccc(S(=O)(=O)N2C[C@H]3[C@H](c4ccccc4)c4cccnc4N[C@@H]3c3ccccc32)cc1`, the IC50 is 6.3 µM in the assay on A549, 8.21 µM in the assay with SK-OV-3 and greater than 50 µM in the assay with MRC5. In assay [1], the result was Active. Further, the values for the inhibition in assay [2], in assay [3] and in assay [4] were 89%, 85% and 91%, respectively.
For `Cc1ccc2c(c1)-c1nc3ncccc3c(-c3ccccc3)c1CO2`, the IC50 in the assay on A549, in the assay on SK-OV-3 and in the assay with MRC5 was greater than 50 µM throughout. The inhibition came to 1% in assay [2], 1% in assay [3] and 26% in assay [4].
For the compound `O=c1oc2ccccc2c2nc3ncc(Br)cc3c(-c3ccccc3)c12`, the IC50 in the assay with A549, in the assay with SK-OV-3 and in the assay on MRC5 was greater than 50 µM in each case. Besides, the inhibition in assay [2] turned out to be 15%; in assay [3] it was 5%; in assay [4], 21%.
With `COc1ccc(-c2c3c(nc4ncccc24)-c2ccccc2OC3)cc1`, the IC50 with A549, with SK-OV-3 and with MRC5 was greater than 50 µM in each case. For the same compound, the inhibition in assay [2] was found to be 11%; in assay [3], 6%; in assay [4] it was 11%.
On to `Cc1ccc(S(=O)(=O)N2Cc3c(nc4ncccc4c3-c3ccccc3)-c3ccccc32)cc1`, for which the IC50 in the assay on A549 is 17.9 µM; in the assay on SK-OV-3, 16.9 µM; with MRC5 it was greater than 50 µM. In addition, the inhibition in assay [2] is 93%; in assay [3], 92%; in assay [4], 95%.
On to `O=C1Oc2ccccc2[C@H]2Nc3ncc(Br)cc3[C@@H](c3ccccc3)[C@H]12`, for which the IC50 in the assay on A549, with SK-OV-3 and in the assay with MRC5 was greater than 50 µM throughout. The values for the inhibition in assay [2], in assay [3] and in assay [4] were 10%, 1% and 11%, respectively.
On to `O=c1oc2ccc(F)cc2c2nc3ncccc3c(-c3ccccc3)c12`, for which the IC50 in the assay with A549, with SK-OV-3 and with MRC5 was greater than 50 µM throughout. Besides, the inhibition in assay [2] is 4%; in assay [3], 4%; in assay [4] it was 5%.
Turning to `O=c1oc2ccccc2c2nc3ncccc3c(-c3ccccc3)c12`, the half-maximal inhibitory concentration (IC50) is 1.23 µM in the assay on A549, 1.78 µM in the assay with SK-OV-3 and greater than 50 µM in the assay on MRC5. Further, the inhibition in assay [2] is 75%; in assay [3], 51%; in assay [4], 75%.
On to `O=C1Oc2ccc(F)cc2[C@H]2Nc3ncccc3[C@@H](c3ccccc3)[C@H]12`, for which the IC50 with A549, in the assay on SK-OV-3 and in the assay with MRC5 was greater than 50 µM in each case. The values for the inhibition in assay [2], in assay [3] and in assay [4] were 5%, 4% and 5%, respectively.
